Laboratory results reported in patent publication US12377110B2, “Fospropofol methods and compositions” (Epalex Corporation, priority 2019, dated 2025).
Where “and” joins values, the source holds several entries; their conditions need not be identical. Identical values can stand only once. Counter-ions that a name gives are not always drawn. Like-named read-outs stand apart in the source and are kept apart here.

Legend:
[1] = type: physicochemical; conditions: for XRPD Analysis Post Dissolution: after IDR in faSSGf; for Average pH: during IDR run in 40 ml faSSGf media; for Average pH / IDR Average / IDR Duplicate: 37° C.; for IDR Average / IDR Duplicate: faSSGf media, 3 mm disc, 100 rpm; for IDR Average: average of duplicate; for IDR Duplicate: individual duplicate values
Experimental: Intrinsic Dissolution Rate was Determined in Simulated Intestinal Fluid at pH Base Buffer (FaSSGF):
Sodium chloride (2.0 g) and deionized water added to a 1000 ml volumetric flask, pH adjusted to 1.6 with concentrated hydrochloric […] acid, made up to volume with deionised water.
Phares SIF (simulated intestinal fluid) powder (0.06 g) was added to a 1 L volumetric flask and made to volume with base buffer.
(§1) Data were collected on a Sirius inform instrument fitted with a dual UV Dip Probe attachment and Ag/AgCI combination pH electrode. The electrode was calibrated using the four plus parameters derived from a blank titration. The base titrant was standardised by titration with TRIS. 0.5 M HCl and NaOH aqueous solutions were used as the acid and base titrants respectively for the testing. Stirring was facilitated by a dual overhead stirrer to allow thorough mixing within the vessel, and media was introduced via a capillary bundle attached to a dispensing bank comprised of six precision dispensing units. A Peltier heating jacket was used to maintain the temperature of the titration vessel. Discs were introduced to the vessel via the tablet picker housed in the probe arm, after the desired temperature of the media had been reached. Sirius inform Assay Design, Control and Refine software were used to design, run and refine data respectively.
(§2) One MEC data sets were then collected using five additions each of the water stock using 250, 500 and three times 750 μI aliquots, respectively. UV Spectra were then collected after each addition of the water stock to build a multi-point MEC calibration, using a 20 mm path length probe. The MEC data set was then imported into the dissolution data files in order to convert the UV absorbance measured to concentration. […] MEC data were collected in the dissolution media {faSSGf) and at 37° C. to match the dissolution experiments.
10-20 mg of the sample was compressed in a 3 mm disc recess, under 100 kg for 2 minutes, with greaseproof paper on the compression base, to form nondisintegrating discs. The discs were then plugged with a bung so that only one surface was exposed to the media during analysis and transferred to the Sirius inform dissolution apparatus. Analysis was performed at 37° C. in 40 ml faSSGf media for 1 hour with UV spectra collected every 30 seconds. A stir speed of 100 rpm was used with a 20 mm path length probe. The IDR was calculated based on the surface area of the 3 mm disc recess used (7.07 mm2 surface area). XRPD analysis was performed on all samples, both after compression of the material into the disc recess, and post dissolution analysis to observe any change in form. All analysis was performed using XRPD 2.
(§3) X-Ray Powder Diffraction (XRPD2): XRPD diffractograms were collected on a Bruker AXS C2 GADDS diffractometer using Cu Ka radiation (40 kV, 40 mA), an automated XYZ stage, a laser video microscope for auto sample positioning and a Vantec-500 2-dimensional area detector. X-ray optics consists of a single Gobel multilayer mirror coupled with a pinhole collimator of 0.3 mm. The beam divergence, i.e. the effective size of the X-ray beam on the sample, was approximately 4 mm. […] The sample was exposed to the X-ray beam for 120 seconds under ambient conditions. The software used for data collection and analysis was GADDS for Win7/XP and Diffrac Plus EVA respectively.

[2] = type: physicochemical; conditions: for XRPD Analysis Post Dissolution: after IDR at pH 4.5; for Average pH: during IDR run, 36 ml water and 4 ml GI media; for Average pH / IDR Average / IDR Duplicate: pH set to 4.5, 37° C.; for IDR Average / IDR Duplicate: 3 mm disc, 100 rpm; for IDR Average: average of duplicate; for IDR Duplicate: individual duplicate values
Experimental: Intrinsic Dissolution Rate was measure in GI tract buff (pH—4.5 buffer): 2.99 g sodium acetate trihydrate was dissolved in 14.0 ml 2N acetic acid in a 1000 ml volumetric flask, and then made to volume with deionised water.
as §1, with “DipProbe” for “Dip Probe”, “NaOHaqueous” for “NaOH aqueous”
as §2, with “collected” for “collected in the dissolution media {faSSGf) and”
Intrinsic Dissolution Rate (IDR): Approximately. 10-20 mg of the sample was compressed in a 3 mm disc recess, under 100 kg for 2 minutes, with greaseproof paper on the compression base, to form nondisintegrating discs. The discs were then plugged with a bung so that only one surface was exposed to the media during analysis and transferred to the Sirius inform dissolution apparatus. Analysis was performed at 37° C. in 36 ml water and 4 ml GI media with the pH set to 4.5, for 1 hour with UV spectra collected every 10 seconds. A stir speed of 100 rpm was used with a 20 mm path length probe. The IDR was calculated based on the surface area of the 3 mm disc recess used (7.07 mm2 surface area). XRPD analysis was performed on all samples, both after compression of the material into the disc recess, and post dissolution analysis to observe any change in form. All analysis was performed using XRPD 2.
as §3

[3] = XRPD after 7 days storage at 40° C./75% RH; type: physicochemical
Experimental: XRPD was again taken after 7 days storage at 40° C./75% RH. Form II of the diethylamine salt and Form II of the ethanolamine salt were formed by conversion of Form I of the respective salts after 7 days storage at 40° C./75% RH.
Form II of the calcium salt was produced from Form I of the calcium salt after 7 days storage at 40° C./75% RH.

Row | Molecule | XRPD Analysis Post Dissolution [1] | Average pH [1] | IDR Average [1] [mg/min/cm^2] | IDR Duplicate [1] | XRPD Analysis Post Dissolution [2] | Average pH [2] | IDR Average [2] [mg/min/cm^2] | IDR Duplicate [2] | Solid form (XRPD) after storage, starting from Form I [3]
1 | NCCN [Ethylene Diamine] | Amorphous | 1.6 | 1.2 | 1.16 mg/min/cm^2 and 1.29 mg/min/cm^2 | Amorphous | 4.5 | 0.77 | 0.76 mg/min/cm^2 and 0.78 mg/min/cm^2 | –
2 | [Ca] [Calcium] | Amorphous | 1.8 | 1.2 | 1.15 mg/min/cm^2 and 1.14 mg/min/cm^2 | Amorphous | 4.5 | 0.44 | 0.51 mg/min/cm^2 and 0.37 mg/min/cm^2 | –
3 | [Mg] [Magnesium] | Amorphous | 1.8 | 1.6 | 1.51 mg/min/cm^2 and 1.67 mg/min/cm^2 | Amorphous | 4.5 | 0.46 | 0.47 mg/min/cm^2 and 0.44 mg/min/cm^2 | –
4 | CC(C)c1cccc(C(C)C)c1OCOP(=O)(O)O [calcium salt of fospropofol (Form I)] | – | – | – | – | – | – | – | – | Form II
5 | Sodium | – | 1.8 | 43 | 41.5 mg/min/cm^2 and 44.2 mg/min/cm^2 | – | 4.6 | 37 | 38.04 mg/min/cm^2 and 35.67 mg/min/cm^2 | –
6 | Zinc | Amorphous | 1.8 | 1.3 | 1.22 mg/min/cm^2 and 1.31 mg/min/cm^2 | Amorphous | 4.5 | 0.18 | 0.19 mg/min/cm^2 and 0.18 mg/min/cm^2 | –
